This data set is described as follows: solvent given as SMILES.

Compound `Cc1nc2c(c[n+]1C)CN1C(=O)N([C@H]3O[C@@H](CO)[C@H](O)[C@@H]3O)C=CC1=N2` displayed an absorption maximum (in CC#N) of 390 nm; an absorption maximum (in CC(C)=O) of 391 nm; an absorption maximum (in CCCCO) of 390 nm; an absorption maximum (in CCCO) of 390 nm; an absorption maximum (in CCO) of 390 nm; an absorption maximum (in CO) of 390 nm. Also, the absorption maximum is listed as 384 nm (in O), 390 nm (in [2H]OC), 390 nm (in [2H]OCC) and 384 nm (in [2H]O[2H]).
Consider `O=C([O-])c1ccc(C(=O)[O-])c2cc3ccccc3cc12`, for which the absorption maximum (in CN(C)C=O) came to 396 nm.
Consider `CCOc1cccc(-c2nc3c(c4c2-c2ccccc2CC4)-c2ccccc2CC3)c1O`, for which the absorption maximum (in ClCCl) stood at 335 nm.
For the compound `O=c1c2cc(Br)ccc2nc2n1[B-](F)(F)[n+]1ccccc1-2`, the absorption maximum reads like this: (in CC#N) 343 nm; (in ClCCl) 358 nm.
Where the note is “in CO”, `CC1(C)C(/C=C/C2=C(c3ccc(C(=O)O)cc3)C(=C/C=C3/N(CCCCS(=O)(=O)[O-])c4ccc(S(=O)(=O)[O-])cc4C3(C)C)/CCC2)=[N+](CCCCS(=O)(=O)[O-])c2ccc(S(=O)(=O)[O-])cc21` yielded an absorption maximum of 770 nm.
Take `Oc1ccc(Br)cc1-c1nc2c(c3c1-c1ccccc1CC3)-c1ccccc1CC2`: the absorption maximum (in ClCCl) was determined as 345 nm.
The compound `CCOC(=O)c1cc(C(=O)OCC)c2c(C)ccc(O)c2n1` came in with an absorption maximum (in CCO) of 369 nm.
Turning to `Cc1c(COC(=O)c2ccc(I)cc2)n2c(OCC(=O)c3ccc(I)cc3)c(C)c(=O)n2c1=O`, the absorption maximum (in CCO) is 387 nm.
For the setting “in CCCCCCC”, `c1ccc2cc3c(cc2c1)-c1cccc2c1c-3cc1ccccc12` had an absorption maximum of 400 nm.
The compound `O=C1NC(=O)c2ccc3c4ccc5c6c(ccc(c7ccc1c2c73)c64)C(=O)N(c1ccc(Cl)cc1)C5=O` registered an absorption maximum (in CN(C)C=O) of 526 nm.
The compound `O=S1(=O)c2ccc(-c3ccc(N(c4ccccc4)c4ccccc4)cc3)cc2C2(c3ccccc3-c3ccccc32)c2cc(-c3ccc(N(c4ccccc4)c4ccccc4)cc3)ccc21` had an absorption maximum (in ClCCl) of 363 nm.
For the compound `CCC1=C(C)C2=C(c3cc(C(=O)Cl)cc(C(=O)Cl)c3)c3c(C)c(CC)c(C)n3[B-](F)(F)[N+]2=C1C`, the absorption maximum came to 528 nm (in C1CCOC1); 524 nm (in CC#N); 529 nm (in CN(C)C=O); 531 nm (in Cc1ccccc1); 532 nm (in ClC(Cl)Cl).
`N#Cc1nnn(-c2ccnc3cc(Cl)ccc23)c1N` registered an absorption maximum (in C1CCCCC1) of 326.01 nm; an absorption maximum (in C1CCOC1) of 364.05 nm; an absorption maximum (in C1COCCO1) of 365.68 nm; an absorption maximum (in CC#N) of 381.45 nm; an absorption maximum (in CCOC(C)=O) of 364.01 nm; an absorption maximum (in CN(C)C=O) of 376.7 nm. Besides, the absorption maximum (in CO) came out at 386.62 nm, the absorption maximum (in CS(C)=O) amounted to 368.79 nm and the absorption maximum (in ClC(Cl)Cl) is recorded as 385 nm.
`Cc1cc(-c2ccc(-c3n(C)c4ccccc4[n+]3C)cc2)ccc1-c1ccc(-c2n(C)c3ccccc3[n+]2C)cc1` gave an absorption maximum (in O) of 299 nm.
As for `Cc1cc2cc(C)c3c4ccccc4[nH]c3c2o1`, under “in ClCCl”, the absorption maximum was 302 nm.
For the setting “in CO”, `O=C(O)CCCCCn1/c(=C/C=C/C2=[N+](CCCCCC(=O)O)c3cccc4cccc2c34)c2cccc3cccc1c32` registered an absorption maximum of 760 nm.
Under “in ClCCl”, `CCCCCCOc1cc(/C=C/c2cc(OCCCCCC)c(/C=C/c3cc(OCCCCCC)c(C=C(C#N)C#N)cc3OCCCCCC)cc2OCCCCCC)c(OCCCCCC)cc1C=C(C#N)C#N` yielded an absorption maximum of 518 nm.
Consider `CC1=C(/C=C/c2ccccc2)C2=Cc3c(/C=C/c4ccccc4)c(C)c(C)n3[B-](F)(F)[N+]2=C1C`, for which the absorption maximum (in CC#N) was found to be 572 nm.
The compound `Cc1ccc(/C=C/C(F)(F)F)c(N)c1` came in with an absorption maximum (in C1CCOC1) of 346 nm.
On to `CC(C)[Si](C#Cc1cc2c(=S)c3cc(C#C[Si](C(C)C)(C(C)C)C(C)C)cc4c(=S)c5cc(C#C[Si](C(C)C)(C(C)C)C(C)C)cc6c(=S)c(c1)c2n(c34)c65)(C(C)C)C(C)C`, for which, for the setting “in ClCCl”, the absorption maximum is listed as 577 nm.
Consider `CC1=[N+]2C(=C(c3ccc(Br)cc3)c3ccc(C)n3[B-]2(F)F)C=C1c1cc2n(c1)[B-](F)(F)[N+]1=CC=CC1=C2c1c(C)cc(C)cc1C`, for which the absorption maximum stood at 598.5 nm (in C1CCCCC1) and 601.5 nm (in CCOC(C)=O).
Consider `CC1(C)CCc2c(c3ccccc3c3nc4c5c(c6ccccc6c4nc23)OC(C)(C)CC5)O1`, for which the absorption maximum reads like this: (in C1CCOC1) 458.09 nm; (in C1COCCO1) 459.98 nm; (in CC#N) 459.98 nm; (in CC(C)O) 454.96 nm; (in CCCCCC) 452.08 nm; (in CN(C)C=O) 458.93 nm. The absorption maximum reads like this: (in CO) 457.04 nm; (in ClC(Cl)Cl) 461.04 nm; (in c1ccccc1) 459.98 nm.
Take `CC(C)n1c(=O)c2cc3ccc4cccc5ccc(c2c1=O)c3c45`: the absorption maximum (in ClC(Cl)Cl) was found to be 427 nm.
On to `Cc1ccccc1/C(C#N)=C/c1ccc(N(C)C)cc1`, for which the absorption maximum by setting is: (in C1CCOC1) 376 nm; (in C1COCCO1) 376 nm; (in CC#N) 377 nm; (in CCCCCC) 364 nm; (in CCCCCCC) 376 nm; (in CCCCCO) 376 nm. For the same compound, the absorption maximum by setting is: (in CCCCO) 376 nm; (in CCCO) 374 nm; (in CCO) 376 nm; (in CCOC(C)=O) 373 nm; (in CN(C)C=O) 382 nm; (in CO) 374 nm. The absorption maximum is, setting by setting: (in CS(C)=O) 385 nm; (in Cc1ccccc1) 366 nm; (in ClC(Cl)Cl) 378 nm.
As for `CC(=O)OC[C@@H]1O[C@H](N2C=CC3=Nc4nc(C)[n+](C)cc4CN3C2=O)[C@@H](O)[C@H]1O`, the absorption maximum reads like this: (in CC#N) 386 nm; (in CCO) 388 nm; (in O) 382 nm.
For `N#Cc1c(N2CCCCC2)cc(-c2ccc(-c3ccccc3)cc2)c2c1CCc1ccccc1-2`, the absorption maximum (in C1CCOC1) is 332 nm.

Source of the values: the Deep4Chem optical property database.
